According to US20130310428A1, “THERMO-STABLE, ARSENIC-FREE SYNERGISTIC BIOCIDE CONCENTRATE COMPOSITION FOR POLYMER MATRICES AND PROCESS FOR PREPARING SAME” (ISP INVESTMENTS INC., priority 2010, published 2013):

Legend:
Type in all cases: cell-based
[1] = system: mixture of A. niger (ATCC 9642) and P. funiculosum (ATCC 11797); test: Zone of Inhibition, flexible PVC coupons on seeded Malt agar; parameters: key: A zone of inhibition around the sample is rated as “+”; The absence of zone of inhibition is rated as “−”; details: 4 weeks
Method: (§1) Plastic samples containing the biocide concentrate composition containing antioxidant can be prepared by mixing with commercially available flexible PVC and processing at 175° C. in a brabender. The samples are pressed to form coupons for testing purposes. A sample containing no biocide is also prepared to serve as a negative control against the samples of the present invention.
Briefly a fungal inoculum containing a mixture of A. niger (ATCC 9642) and P. funiculosum (ATCC 11797) is prepared. The spore suspension is added to molten Malt agar to a final concentration of 10^4-10^5 spores/ml, poured onto the petri-dishes and allowed to dry. The samples are placed on the surface of the seeded agar and incubated at 28° C. for 4 weeks. A zone of inhibition around the sample is rated as “+”. The absence of zone of inhibition is rated as “−”. The results are shown in Tables 1 to 3 for three different combinations of biocidal agents.

[2] = system: mixture of Aspergillus niger (ATCC 9642), Aureobasidium pullulans (ATCC 15233), Chaetomium globosum (ATCC 6205), Penicillium funiculosum (ATCC 11797) and …; test: Fungal resistance ASTM G21 in swimming pool liner formulation; parameters: key: 0 is no growth; 1 is traces of growth (less than 10%); 2 is light growth (10-30%); 3 is medium growth (30-60%); 4 is maximum growth (more than 60%); details: growth rating after 4 weeks
Method: as §1
(§2) Fungal resistance tests are conducted according to ASTM G-21. Briefly, a fungal inoculum containing a mixture of Aspergillus niger (ATCC 9642), Aureobasidium pullulans (ATCC 15233), Chaetomium globosum (ATCC 6205), Penicillium funiculosum (ATCC 11797) and Trichoderma virens (ATCC 9645) is prepared to obtain a final spore concentration of about 10^5 spores/ml. The samples (in triplicate) are placed on Petri-dishes containing nutrient salts agar and incubated with the spore suspension. The samples are then incubated at 28° C. for 4 weeks and rated weekly. The fungal growth of the samples is rated on a scale of 0 to 4 where: 0 is no growth, 1 is traces of growth (less than 10%); 2 is light growth (10-30%); 3 is medium growth (30-60%) and 4 is maximum growth (more than 60%). The ratings shown in Tables 1 to 3 correspond to those at the end of the test i.e., on 4th week for three different compositions of combination of biocidal agents.
A swimming pool liner formulation is selected. The individual and synergistic biocidal compositions respectively IPBC, Folpet, OBPA and Folpet+IPBC are added and processed in the brabender as described in Example 1. The efficacy data for each sample is tested according to ASTM G21. Growth ratings after 4 weeks are described in the following Table 4.

[3] = system: mixture of Aspergillus niger (ATCC 9642), Aureobasidium pullulans (ATCC 15233), Chaetomium globosum (ATCC 6205), Penicillium funiculosum (ATCC 11797) and …; test: Fungal resistance ASTM G21 in wall covering formulation; parameters: key: 0 is no growth; 1 is traces of growth (less than 10%); 2 is light growth (10-30%); 3 is medium growth (30-60%); 4 is maximum growth (more than 60%); details: growth rating after 4 weeks
Method: as §1, §2
A wall covering formulation is employed for evaluating the efficacy of the present biocide concentrate composition. The individual and synergistic biocidal compositions respectively IPBC, Folpet, OBPA, Folpet+IPBC, and Folpet+TBZ are added and processed in the brabender as disclosed in Example 1. The efficacy data for each sample was tested according to ASTM G21. Growth ratings after 4 weeks are described in the following Table 5.

[4] = system: Streptoverticillium reticulum (ATCC 25607); test: Pink Stain test ASTM E1428, flexible PVC coupons; parameters: key: 0 is no stain; 1 is a trace of stain (less than 10%); 2 is light stain (10-30%); 3 is medium stain (30-50%); 4 is maximum stain (more than 50%); details: 14 days
Method: as §1
Pink Stain tests are conducted according to ASTM E1428. Briefly, an inoculum containing the microorganism Streptoverticillium reticulum (ATCC 25607) is prepared. The inoculum is streaked onto the surface of Yeast Malt Extract Agar. The samples (in triplicate) are placed on the inoculated agar and incubated at 28° C. for 14 days. The degree of staining is rated on a scale of 0-4 where: 0 is no stain; 1 is a trace of stain (less than 10%); 2 is light stain (10-30%); 3 is medium stain (30-50%) and 4 is maximum stain (more than 50%). The ratings of the pink stain test are disclosed in Tables 1 to 3 for three different synergistic biocide compositions.

[5] = system: mixture of Aspergillus niger (ATCC 9642), Aureobasidium pullulans (ATCC 15233), Chaetomium globosum (ATCC 6205), Penicillium funiculosum (ATCC 11797) and …; test: Fungal resistance test ASTM G-21, flexible PVC coupons; parameters: key: 0 is no growth; 1 is traces of growth (less than 10%); 2 is light growth (10-30%); 3 is medium growth (30-60%); 4 is maximum growth (more than 60%); details: rating at 4th week
Method: as §1, §2

`O=C1c2ccccc2C(=O)N1SC(Cl)(Cl)Cl` [Folpet, trichloromethyl-thio-phthalimide] was tested. Which Zone inhibition ([1]; Quantity 3000 ppm) did it give?
Its Zone inhibition is “−”.

And the “Fungal Resistance Test” value ([2]; Quantity 2000 ppm)?
Its value is 1 (1 is traces of growth (less than 10%)).

What about the “Fungal Resistance Test” value ([3]; Quantity 2000 ppm) of the same molecule?
The value was 3 (3 is medium growth (30-60%)).

And the “Pink Stain” value ([4]; Quantity 3000 ppm)?
Its value is 0.

What about the “Fungal Resistance Test” value ([5]; Quantity 3000 ppm) of the same molecule?
The value was 1 (1 is traces of growth (less than 10%)).

For `CCCCCCCCn1sccc1=O` [OIT, 2-Octyl-4-isothiazolin-3-one], which Zone inhibition ([1]; Quantity 500 ppm) is on record?
The Zone inhibition was “−”.

And the “Pink Stain” value ([4]; Quantity 500 ppm)?
Its value is 1 (1 is a trace of stain (less than 10%)).

And the “Fungal Resistance Test” value ([5]; Quantity 500 ppm)?
The value was 1 (1 is traces of growth (less than 10%)).

Which results are given for `c1ccc2c(c1)Oc1ccccc1[As]2O[As]1c2ccccc2Oc2ccccc21` [OBPA, 10,10-oxybisphenoxarsine]?
Zone inhibition ([1]; Quantity 500 ppm): +; Fungal Resistance Test ([2]; Quantity 400 ppm): 0; Fungal Resistance Test ([3]; Quantity 600 ppm): 0; Pink Stain ([4]; Quantity 500 ppm): 0; Fungal Resistance Test ([5]; Quantity 500 ppm): 0

With `c1ccc2[nH]c(-c3cscn3)nc2c1` [TBZ, Thiabendazole] as the molecule, how does the Zone inhibition ([1]; Quantity 500 ppm) read?
The Zone inhibition was “−”.

And the “Pink Stain” value ([4]; Quantity 500 ppm)?
Its value is 2 (2 is light stain (10-30%)).

What about the “Fungal Resistance Test” value ([5]; Quantity 500 ppm) of the same molecule?
Its value is 1 (1 is traces of growth (less than 10%)).

Which Zone inhibition ([1]; Quantity 500 ppm) does the source give for `CCCCNC(=O)OCC#CI` [IPBC, 3-iodo-2-propynylbutyl-carbamate] here?
Its Zone inhibition is “+”.

And the “Fungal Resistance Test” value ([2]; Quantity 500 ppm)?
Its value is 1 (1 is traces of growth (less than 10%)).

And the “Fungal Resistance Test” value ([3]; Quantity 1000 ppm)?
Its value is 2 (2 is light growth (10-30%)).

What about the “Pink Stain” value ([4]; Quantity 500 ppm) of the same molecule?
The value was 2 (2 is light stain (10-30%)).

And the “Fungal Resistance Test” value ([5]; Quantity 500 ppm)?
The value was 1 (1 is traces of growth (less than 10%)).
